Legend:
Assay type in all cases: in vivo
[1] = test system: Boll Weevil (Anthonomus grandis); experiment: Boll weevil (Anthonomus grandis) microtiter plate insect diet test; conditions: 120 h, egg and larval mortality after 5 days, in comparison with untreated controls
Description: For evaluating control of boll weevil (Anthonomus grandis) the test unit consisted of 96-well-microtiter plates containing an insect diet and 5-10 A. grandis eggs.
(§1) The compounds were formulated using a solution containing 75% v/v water and 25% v/v DMSO. Different concentrations of formulated compounds were sprayed onto the insect diet at 5 μl, using a custom built micro atomizer, at two replications.
After application, microtiter plates were incubated at about 25±1° C. and about 75±5% relative humidity for 5 days. Egg and larval mortality was then visually assessed.

[2] = test system: Cowpea Aphid (Aphis craccivora); experiment: Cowpea aphid (Aphis craccivora) spray test on potted cowpea plants; conditions: assessed after 72 hours, in comparison with untreated controls
Description: The active compound was dissolved at the desired concentration in a mixture of 1:1 (vol:vol) distilled water:acetone. Surfactant (Alkamuls® EL 620) is added at a rate of 0.1% (vol/vol). The test solution was prepared at the day of use.
Potted cowpea plants were colonized with approximately 50-100 aphids of various stages by manually transferring a leaf tissue cut from infested plant 24 hours before application. Plants were sprayed after the pest population has been recorded. Treated plants were maintained on light carts at about 28° C. Percent mortality was assessed after 72 hours.

[3] = test system: Orchid Thrips (Dichromothrips corbetti); experiment: Orchid thrips (Dichromothrips corbetti) floral-immersion test; conditions: adult thrips, 72 hours after treatment, in comparison with untreated controls
Description: Dichromothrips corbetti adults used for bioassay were obtained from a colony maintained continuously under laboratory conditions. For testing purposes, the test compound was diluted in a 1:1 mixture of acetone:water (vol:vol), plus 0.01% vol/vol Alkamuls® EL 620 surfactant.
Thrips potency of each compound was evaluated by using a floral-immersion technique. Plastic petri dishes were used as test arenas. All petals of individual, intact orchid flowers were dipped into treatment solution and allowed to dry. Treated flowers were placed into individual petri dishes along with—about 20 adult thrips. The petri dishes were then covered with lids. All test arenas were held under continuous light and a temperature of about 28° C. for duration of the assay. After 3 days, the numbers of live thrips were counted on each flower, and along inner walls of each petri dish. The percent mortality was recorded 72 hours after treatment.

[4] = test system: Mediterranean Fruitfly (Ceratitis capitata); experiment: Mediterranean fruitfly (Ceratitis capitata) microtiter plate insect diet test; conditions: 120 h, egg and larval mortality after 5 days, in comparison with untreated controls
Description: For evaluating control of Mediterranean fruitfly (Ceratitis capitata) the test unit consisted of microtiter plates containing an insect diet and 50-80 C. capitata eggs.
as §1
After application, microtiter plates were incubated at about 28±1° C. and about 80±5% relative humidity for 5 days. Egg and larval mortality was then visually assessed.

[5] = test system: Vetch Aphid (Megoura viciae); experiment: Vetch aphid (Megoura viciae) broad bean leaf disk microtiter test; conditions: foliar, 120 h, adult aphids, after 5 days, in comparison with untreated controls
Description: For evaluating control of vetch aphid (Megoura viciae) through contact or systemic means the test unit consisted of 24-well-microtiter plates containing broad bean leaf disks.
The compounds were formulated using a solution containing 75% v/v water and 25% v/v DMSO. Different concentrations of formulated compounds were sprayed onto the leaf disks at 2.5 μl, using a custom built micro atomizer, at two replications.
After application, the leaf disks were air-dried and 5-8 adult aphids placed on the leaf disks inside the microtiter plate wells. The aphids were then allowed to suck on the treated leaf disks and incubated at about 23±1° C. and about 50±5% relative humidity for 5 days. Aphid mortality and fecundity was then visually assessed.

[6] = test system: Southern Armyworm (Spodoptera eridania); experiment: Southern armyworm (Spodoptera eridania) spray test on lima bean plants; conditions: 96 h, larvae, 4 days after treatment, in comparison with untreated controls
Description: (§2) The active compounds were formulated in cyclohexanone as a 10,000 ppm solution supplied in tubes. The tubes were inserted into an automated electrostatic sprayer equipped with an atomizing nozzle and they served as stock solutions for which lower dilutions were made in 50% acetone:50% water (v/v). A nonionic surfactant (Kinetic®) was included in the solution at a volume of 0.01% (v/v).
(§3) Lima bean plants (variety Sieva) were grown 2 plants to a pot and selected for treatment at the 1st true leaf stage. Test solutions were sprayed onto the foliage by an automated electrostatic plant sprayer equipped with an atomizing spray nozzle. The plants were dried in the sprayer fume hood and then removed from the sprayer. Each pot was placed into perforated plastic bags with a zip closure. About 10 to 11 armyworm larvae were placed into the bag and the bags zipped closed. Test plants were maintained in a growth room at about 25° C. and about 20-40% relative humidity for 4 days, avoiding direct exposure to fluorescent light (24 hour photoperiod) to prevent trapping of heat inside the bags. Mortality and reduced feeding were assessed 4 days after treatment, compared to untreated control plants.

[7] = test system: Colorado Potato Beetle (Leptinotarsa decemlineata); experiment: Colorado potato beetle (Leptinotarsa decemlineata) spray test on eggplant foliage; conditions: foliar, 96 h, beetle larvae, 4 days after treatment, in comparison with untreated controls
Description: as §2
Eggplants were grown 2 plants to a pot and were selected for treatment at the 1st true leaf stage. Test solutions were sprayed onto the foliage by an automated electrostatic plant sprayer equipped with an atomizing spray nozzle. The plants were dried in the sprayer fume hood and then removed from the sprayer. The treated foliage was then cut and removed from the pot and placed in a Petri dish lined with moistened filter paper. Five beetle larvae were introduced into each Petri dish and the dish was covered by a Petri dish lid. Petri dishes were maintained in a growth room at about 25° C. and about 20-40% relative humidity for 4 days, avoiding direct exposure to fluorescent light (24 hour photoperiod) to prevent trapping of heat inside the dishes. Mortality and reduced feeding were assessed 4 days after treatment, compared to untreated control plants.

[8] = test system: Diamond Back Moth (Plutella xylostella); experiment: Diamond back moth (Plutella xylostella) cabbage leaf dip test; conditions: foliar, 3rd instar larvae, 72 hours after treatment, in comparison with untreated controls
Description: The active compound was dissolved at the desired concentration in a mixture of 1:1 (vol:vol) distilled water:acetone. Surfactant (Alkamuls® EL 620) is added at a rate of 0.1% (vol/vol).The test solution was prepared at the day of use.
Leaves of cabbage were dipped in test solution and air-dried. Treated leaves were placed in petri dishes lined with moist filter paper and inoculated with ten 3rd instar larvae. Mortality was recorded 72 hours after treatment. Feeding damages were also recorded using a scale of 0-100%.

[9] = test system: Tobacco Budworm (Heliothis virescens); experiment: Tobacco budworm (Heliothis virescens) I spray test on cotton plants; conditions: 96 h, larvae, 4 days after treatment, in comparison with untreated controls
Description: as §2
as §3, with “Cotton” for “Lima bean”, “plants” for “plants (variety Sieva)”, “cotyledon” for “1st true leaf”, “budworm” for “armyworm”

Cc1cc(Cl)cc(C(=O)N=S2CCCC2)c1NC(=O)c1ccc(C(F)(F)F)cc1-c1ncccc1Cl [Compound 1-7, 5-chloro-2-[[2-(3-chloro-2-pyridyl)-4-(trifluoromethyl)benzoyl]amino]-3-methyl-N-(thiolan-1-ylidene)benzamide]
≥ 75%: mortality at 2500 ppm [1] | mortality at 300 ppm [2] | mortality at 500 ppm [3] | mortality at 2500 ppm [4] | mortality at 2500 ppm [5] | mortality at 300 ppm [6] | mortality at 10 ppm [7] | mortality at 300 ppm [8] | mortality at 2500 ppm [9]
